Results published in the supplement of paper PMC4862054.

Tests used:
Conditions in all cases: incubation time: 72 h
CAL-120 [1] = assay: normalised viability (% of control), CellTiter-Blue; higher = more viable cells (about 100 = DMSO control)
How it was run: (§1)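 Breast cancer cell lines were treated for 72 h in 384-well format and measured by CellTiter-Blue fluorescence at 560/590 nm. Results were normalised per plate to vehicle (100) and a positive kill control (0). The entry is normalised viability at a single listed concentration of the series.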

CAL-51 [2] = assay: as above
How it was run: as §1

CAL-85-1 [3] = assay: as above
How it was run: as §1

HCC1599 [4] = assay: as above
How it was run: as §1

Hs578T [5] = assay: as above
How it was run: as §1

MDA-MB-436 [6] = assay: as above
How it was run: as §1

MDA-MB-468 [7] = assay: as above
How it was run: as §1

BT-474 = assay: drug sensitivity score (DSS), CellTox Green (DSS (AUC-based score)); higher = stronger drug effect (viability inhibition or cytotoxicity); extreme values may be limits of the assay
How it was run: (§2)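 The area under the fitted dose-response curve was used to calculate the drug sensitivity score. Cells from breast cancer lines were incubated for 72 h in 384-well plates with compound at 5 concentrations spaced 10-fold over a 10,000-fold range specific to each compound. Plates were read for CellTox Green and then CellTiter-Glo, and normalised to 0.1 % DMSO and a positive kill control.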

BT-549 = assay: as above
How it was run: as §2

CAL-120 [8] = assay: as above
How it was run: as §2

CAL-148 = assay: as above
How it was run: as §2

CAL-51 [9] = assay: as above
How it was run: as §2

CAL-85-1 [10] = assay: as above
How it was run: as §2

DU-4475 = assay: as above
How it was run: as §2

HCC1143 = assay: as above
How it was run: as §2

HCC1599 [11] = assay: as above
How it was run: as §2

HCC1937 = assay: as above
How it was run: as §2

HDQ-P1 = assay: as above
How it was run: as §2

Hs578T [12] = assay: as above
How it was run: as §2

MCF-10A = assay: as above
How it was run: as §2

MDA-MB-231 = assay: as above
How it was run: as §2

MDA-MB-436 [13] = assay: as above
How it was run: as §2

MDA-MB-453 = assay: as above
How it was run: as §2

MDA-MB-468 [14] = assay: as above
How it was run: as §2

MFM-223 = assay: as above
How it was run: as §2

| Structure (SMILES) | normalised viability (CAL-120 [1]; 10 nM) [%] | normalised viability (CAL-120 [1]; 1000 nM) [%] | normalised viability (CAL-120 [1]; 10000 nM) [%] | normalised viability (CAL-51 [2]; 3 nM) [%] | normalised viability (CAL-51 [2]; 30 nM) [%] | normalised viability (CAL-51 [2]; 100 nM) [%] | normalised viability (CAL-85-1 [3]; 3 nM) [%] | normalised viability (CAL-85-1 [3]; 30 nM) [%] | normalised viability (CAL-85-1 [3]; 100 nM) [%] | normalised viability (HCC1599 [4]; 10 nM) [%] | normalised viability (HCC1599 [4]; 1000 nM) [%] | normalised viability (HCC1599 [4]; 10000 nM) [%] | normalised viability (Hs578T [5]; 10 nM) [%] | normalised viability (Hs578T [5]; 1000 nM) [%] | normalised viability (Hs578T [5]; 10000 nM) [%] | normalised viability (MDA-MB-436 [6]; 10 nM) [%] | normalised viability (MDA-MB-436 [6]; 1000 nM) [%] | normalised viability (MDA-MB-436 [6]; 10000 nM) [%] | normalised viability (MDA-MB-468 [7]; 10 nM) [%] | normalised viability (MDA-MB-468 [7]; 1000 nM) [%] | normalised viability (MDA-MB-468 [7]; 10000 nM) [%] | drug sensitivity score (BT-474) | drug sensitivity score (BT-549) | drug sensitivity score (CAL-120 [8]) | drug sensitivity score (CAL-148) | drug sensitivity score (CAL-51 [9]) | drug sensitivity score (CAL-85-1 [10]) | drug sensitivity score (DU-4475) | drug sensitivity score (HCC1143) | drug sensitivity score (HCC1599 [11]) | drug sensitivity score (HCC1937) | drug sensitivity score (HDQ-P1) | drug sensitivity score (Hs578T [12]) | drug sensitivity score (MCF-10A) | drug sensitivity score (MDA-MB-231) | drug sensitivity score (MDA-MB-436 [13]) | drug sensitivity score (MDA-MB-453) | drug sensitivity score (MDA-MB-468 [14]) | drug sensitivity score (MFM-223) |
| --- | --- | --- | --- | --- | --- | --- | --- | --- | --- | --- | --- | --- | --- | --- | --- | --- | --- | --- | --- | --- | --- | --- | --- | --- | --- | --- | --- | --- | --- | --- | --- | --- | --- | --- | --- | --- | --- | --- | --- |
| Cc1sc2c(c1C)C(c1ccc(Cl)cc1)=N[C@@H](CC(=O)OC(C)(C)C)c1nnc(C)n1-2 [(+)JQ1] | 83.2 | 47.7 | 49.2 | 100 | 96.9 | 104 | 93.2 | 82.6 | 80 | 115 | 58 | 54.6 | 100 | 61.4 | 44.8 | 105 | 86.3 | 99.7 | 107 | 71.8 | 52.2 | 0 | 0 | 1.56 | 6.55 | 6.31 | 8.47 | 1.14 | 0 | 0 | 13.4 | 0 | 0 | 0 | 0 | 0 | 0 | 8.47 | 0 |
| Nc1nc2[nH]cnc2c(=S)[nH]1 [Thioguanine] | 94.1 | 67.2 | 34.9 | 114 | 109 | 109 | 111 | 97.4 | 104 | 111 | 77 | 103 | 137 | 96.4 | 32.9 | 104 | 74.5 | 65.6 | 104 | 62.1 | 44.4 | 0 | 0 | 0 | 0 | 0 | 0 | 0 | 0 | 0 | 0 | 0 | 0 | 0 | 0 | 0 | 0 | 0 | 0 |
